The results in this text go back to USRE46856E1, “Substituted 2,3-dihydroimidazo[1,2-c]quinazoline derivatives useful for treating hyper-proliferative disorders and diseases associated with angiogenesis” (Bayer Intellectual Property GmbH, priority 2006, dated 2018).

Counter-ions that a name gives are not always drawn.

For one experiment, the system named is IGF-1 induced AKT phosphorylation in A549 cells. Description: IGF-1 induced AKT phosphorylation assay (A549 cell assay). Type of experiment: cell-based. The note with it: Homo sapiens, A549, read-out: average IC50 in the A549 cell assay. The text has this:
[Determination of IC50 Values of Compounds in Cell Based Assays of PI3K Activity] 96-well collagen treated clear bottom/black sided Costar plates were purchased from CORNING LIFE SCIENCES (Corning, N.Y.; at.#3904). Gibco RPMI medium (Cat.#11875), Biosource anti-phospho-AKT([…]) antibody (Cat.#44-621G) and recombinant IGF-1 (Cat.#PHG0074) were purchased from INVITROGEN (Carlsbad, Calif.). The secondary donkey anti-rabbit IgG horse radish peroxidase conjugate (Cat. #N[…]) and ECL chemiluminesence reagent (Cat.#RPN2209) were purchased from […] (Buckinghamshire, UK). Cell culture tested bovine serum albumin solution (35% in DPBS; Cat.#A7979) and all other chemicals were purchased from SIGMA (St. Louis, Mo.). The Wallac Victor2 1420 Multilabel HTS Counter was purchased from […] (Wellesley, Mass.) […] All wells (except no IGF-1 controls) were then treated with 25 ng/ml IGF-1 for 10 minutes at 37° C. in a 5% CO2 incubator. Following removal of the supernatants and washing with the wells with TBS (50 mM Tris pH 8.0 containing 138 mM NaCL and 27 mM KCl), 200 µL of 3.7% formaldehyde in TBS was added to each well, and the plate was incubated at 4° C. for 10 minutes. Supernatants were once again removed and replaced with 50 μL Methanol (-20° C.) and the plate incubated at 4° C. for 5 minutes. 200 μL of 0.1% BSA in TBS was then added to each well and the plate incubated at room temperature for 1⁄2 hour. Supernatants were removed and 50 μL of a solution comprising the primary anti-phospho-AKT([…]) antibody diluted 1:250 in TBS containing 0.1% BSA was added to each well (except control/background wells). The plate was then incubated for 11⁄2 hour at room temperature. Supernatants were removed, each well was washed 3 times with 200 μL TBS, and 100 μL of a solution containing the secondary donkey anti-rabbit IgG antibody HRP-conjugate diluted 1:100 in TBS-T (TBS containing 0.1% triton). Plates were then incubated for 1 hour at room temperature. After removing the secondary antibody, each well was washed 6 times with cold TBS-T, 100 μL of ECL was added to each well, and the plate was placed on an orbital shaker for 1 minute. The plates were then read on a Wallac Victor2 1420 Multilabel HTS Counter using the luminometry window (maximum light detection is measured at […]). IC50 values were determined from the inhibition curve.
Take `COc1c(OCCCN2CCOCC2)ccc2c1N=C(NC(=O)c1cnc(N)nc1)N1CCN=C21` [Example 13, 2-amino-N-[7-methoxy-8-(3-morpholin-4-ylpropoxy)-2,3-dihydroimidazo[1,2-c]quinazolin-5-yl]pyrimidine-5-carboxamide]: the IC50 is < 100 nM.

The same experiment, now with this note: Homo sapiens; A549 cells, 25 ng/ml IGF-1, phospho-AKT(Ser 473); read-out: average IC50 in the A549 cell assay.
In the case of `COc1c(OCCCN2C[C@@H](C)O[C@@H](C)C2)ccc2c1N=C(NC(=O)c1sc(C)nc1C)N1CCN=C21` [Example 3, N-(8-{3-[(2R,6S)-2,6-dimethylmorpholin-4-yl]propoxy}-7-methoxy-2,3-dihydroimidazo[1,2-c]quinazolin-5-yl)-2,4-dimethyl-1,3-thiazole-5-carboxamide], the IC50 is < 100 nM.
Turning to `COc1c(OCCCN2CCOCC2)ccc2c1N=C(NC(=O)c1coc(N)n1)N1CCN=C21` [Example 79, 2-amino-N-[7-methoxy-8-(3-morpholin-4-ylpropoxy)-2,3-dihydroimidazo[1,2-c]quinazolin-5-yl]-1,3-oxazole-4-carboxamide], the IC50 was > 1000 nM.
Same read-out and setting: next, `COc1c(OCCCN2CCOCC2)ccc2c1N=C(NC(=O)c1cnc(N)nc1C)N1CCN=C21` [Example 32, 2-amino-N-[7-methoxy-8-(3-morpholin-4-ylpropoxy)-2,3-dihydroimidazo[1,2-c]quinazolin-5-yl]-4-methylpyrimidine-5-carboxamide]: < 100 nM; `COc1c(OCCCN2CCOCC2)ccc2c1N=C(NC(=O)c1cnc(SC)nc1)N1CCN=C21` [Example 91, N-[7-methoxy-8-(3-morpholin-4-ylpropoxy)-2,3-dihydroimidazo[1,2-c]quinazolin-5-yl]-2-(methylthio)pyrimidine-5-carboxamide]: < 100 nM.
Turning to `CCN(CC)CCOc1ccc2c(c1OC)N=C(NC(=O)c1cccnc1)N1CCN=C21` [Example 87, N-{8-[2-(diethylamino)ethoxy]-7-methoxy-2,3-dihydroimidazo[1,2-c]quinazolin-5-yl}nicotinamide], the IC50 lay in the range of 100 to 1000 nM.
On to `COc1c(OCCCN2CCOCC2)ccc2c1N=C(NC(=O)c1cnc(N)s1)N1CCN=C21` [Example 4, 2-amino-N-[7-methoxy-8-(3-morpholin-4-ylpropoxy)-2,3-dihydroimidazo[1,2-c]quinazolin-5-yl]-1,3-thiazole-5-carboxamide], for which the half-inhibitory concentration (IC50) was 100 to 1000 nM.
Take `CCN(CC)CCCOc1ccc2c(c1OC)N=C(NC(=O)c1cccnc1)N1CCN=C21` [Example 85, N-{8-[3-(diethylamino)propoxy]-7-methoxy-2,3-dihydroimidazo[1,2-c]quinazolin-5-yl}nicotinamide]: the concentration for half-maximal inhibition (IC50) was < 100 nM.
Regarding `COc1c(OCCCN2CCOCC2)ccc2c1N=C(NC(=O)c1ccc(NC(=O)C3CC3)nc1)N1CCN=C21` [Example 60, 6-[(cyclopropylcarbonyl)amino]-N-[7-methoxy-8-(3-morpholin-4-ylpropoxy)-2,3-dihydroimidazo[1,2-c]quinazolin-5-yl]nicotinamide], the IC50 was < 100 nM.
Same read-out and setting: next, `COc1c(OCCCN2CCOCC2)ccc2c1N=C(NC(=O)c1ccc(N(C)C)nc1)N1CCN=C21` [Example 73, 6-(dimethylamino)-N-[7-methoxy-8-(3-morpholin-4-ylpropoxy)-2,3-dihydroimidazo[1,2-c]quinazolin-5-yl]nicotinamide]: 100 to 1000 nM.
On the same count and under the same terms, in the case of `COc1ncc(C(=O)NC2=Nc3c(ccc(OCCCN4CCOCC4)c3OC)C3=NCCN23)cn1` [Example 95, 2-methoxy-N-[7-methoxy-8-(3-morpholin-4-ylpropoxy)-2,3-dihydroimidazo[1,2-c]quinazolin-5-yl]pyrimidine-5-carboxamide] it was < 100 nM; in that of `COc1c(OCCCN2CCOCC2)ccc2c1N=C(NC(=O)c1ccc(N3CC[C@H](N)C3)nc1)N1CCN=C21` [Example 51, 6-[(3S)-3-aminopyrrolidin-1-yl]-N-[7-methoxy-8-(3-morpholin-4-ylpropoxy)-2,3-dihydroimidazo[1,2-c]quinazolin-5-yl]nicotinamide hydrochloride hydrate], 100 to 1000 nM.

In general, IC50 refers to the concentration that gives 50% inhibition.
